Source: ChEMBL document CHEMBL5143694, “A novel survivin dimerization inhibitor without a labile hydrazone linker induces spontaneous apoptosis and synergizes with docetaxel in prostate cancer cells” (Bioorg Med Chem, 2022)
The source made the active and inactive calls. No cut-off for these calls is given here.

Columns and labels:
LNCaP C4-2 [1] = assay: Cytotoxicity against human LNCaP C4-2 cells assessed as reduction in cell viability incubated for 72 hrs by methylene blue survival assay; assay type: functional, cell-based; conditions: LNCaP C4-2, 72 h
[2] = biological target: Baculoviral IAP repeat-containing protein 5 (Homo sapiens) (UniProt O15392); assay: Inhibition of survivin-GAL4-DBD dimerization (unknown origin) expressed in human LNCaP C4-2 cells incubated for 24 hrs by SEAP reporter based mammalian two hybrid assay; assay type: cell-based
Baculoviral IAP repeat-containing protein 5 (Homo sapiens), sequence (O15392 whole entry, the tested form may be a part): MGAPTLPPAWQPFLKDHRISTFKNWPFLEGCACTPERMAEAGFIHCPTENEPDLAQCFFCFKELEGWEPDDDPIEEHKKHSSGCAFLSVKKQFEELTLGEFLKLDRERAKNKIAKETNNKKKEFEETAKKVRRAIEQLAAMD

[3] = biological target: Baculoviral IAP repeat-containing protein 5 (Homo sapiens) (UniProt O15392); assay: Inhibition of survivin dimerization in human PC-3 cells assessed as survivin degradation at 1 uM incubated for 24 hrs by Western blot analysis; assay type: cell-based
LNCaP C4-2 [4] = assay: Cytotoxicity against human LNCaP C4-2 cells assessed as inhibition of cell survival at 2.5 uM incubated for 72 hrs by methylene blue survival assay; assay type: functional
PC-3 [5] = assay: Cytotoxicity against human PC-3 cells assessed as reduction in cell viability incubated for 72 hrs by methylene blue survival assay; assay type: functional, cell-based; conditions: PC-3, 72 h
[6] = biological target: Baculoviral IAP repeat-containing protein 5 (Homo sapiens) (UniProt O15392); assay: Inhibition of survivin dimerization in human LNCaP C4-2 cells assessed as survivin degradation at 1 uM incubated for 24 hrs by Western blot analysis; assay type: cell-based
PC-3 [7] = assay: Cytotoxicity against human PC-3 cells assessed as inhibition of cell survival at 2.5 uM incubated for 72 hrs by methylene blue survival assay; assay type: functional
LNCaP C4-2 [8] = assay: Induction of apoptosis in human LNCaP C4-2 cells at 200 nM incubated for 24 hrs by annexin V-FITC and propidium iodide staining based flow cytometry; assay type: functional
PC-3 [9] = assay: Induction of apoptosis in human PC-3 cells at 200 nM incubated for 24 hrs by annexin V-FITC and propidium iodide staining based flow cytometry; assay type: functional
LNCaP C4-2 [10] = assay: Synergistic potentiation of docetaxel-induced cytotoxicity against human LNCaP C4-2 cells assessed as combination index for reduction in cell viability at docetaxel/7F1 ratios ((1:1, 3:1, and 1:3 using their cytotoxic IC50) incubated for 72 hrs by methylene blue survival assay; assay type: functional
LNCaP C4-2 [11] = assay: Cytotoxicity against human LNCaP C4-2 cells with empty vector-transfection assessed as reduction in cell viability incubated for 72 hrs by methylene blue survival assay; assay type: functional, cell-based; conditions: LNCaP C4-2, 72 h
PC-3 [12] = assay: Synergistic potentiation of docetaxel-induced cytotoxicity against human PC-3 cells assessed as combination index for reduction in cell viability at docetaxel/7F1 ratios ((1:1, 3:1, and 1:3 using their cytotoxic IC50) incubated for 72 hrs by methylene blue survival assay; assay type: functional
LNCaP C4-2 [13] = assay: Cytotoxicity against human LNCaP C4-2 cells with survivin overexpression assessed as reduction in cell viability incubated for 72 hrs by methylene blue survival assay; assay type: functional, cell-based; conditions: LNCaP C4-2, 72 h
[14] = biological target: Baculoviral IAP repeat-containing protein 5 (Homo sapiens) (UniProt O15392); assay: Inhibition of survivin dimerization in human PC-3 cells assessed as survivin degradation at 500 nM incubated for 24 hrs by Western blot analysis; assay type: cell-based
LNCaP C4-2 [15] = assay: Induction of apoptosis in human LNCaP C4-2 cells assessed as increase in cleaved caspase-3 level at 200 nM incubated for 24 hrs by Western blot analysis; assay type: functional, cell-based
PC-3 [16] = assay: Induction of apoptosis in human PC-3 cells assessed as increase in cleaved caspase-3 level at 200 nM incubated for 24 hrs by Western blot analysis; assay type: functional, cell-based
[17] = biological target: Baculoviral IAP repeat-containing protein 5 (Homo sapiens) (UniProt O15392); assay: Inhibition of survivin dimerization in human LNCaP C4-2 cells assessed as survivin degradation at 500 nM incubated for 24 hrs by Western blot analysis; assay type: cell-based

| SMILES | IC50 (LNCaP C4-2 [1]) [nM] | inhibition [2] | inhibition [3] | inhibition at 2.5 µM (LNCaP C4-2 [4]) [%] | IC50 (PC-3 [5]) [nM] | inhibition [6] | inhibition at 2.5 µM (PC-3 [7]) [%] | Activity (LNCaP C4-2 [8]) [%] | Activity (PC-3 [9]) [%] | CI (LNCaP C4-2 [10]) | IC50 (LNCaP C4-2 [11]) [nM] | CI (PC-3 [12]) | IC50 (LNCaP C4-2 [13]) [nM] | inhibition [14] | Activity (LNCaP C4-2 [15]) | Activity (PC-3 [16]) | inhibition [17] |
| --- | --- | --- | --- | --- | --- | --- | --- | --- | --- | --- | --- | --- | --- | --- | --- | --- | --- |
| Nc1nonc1C(=O)N/N=C1\c2ccccc2-c2nc3nonc3nc21 | 2470 | Active | Active | 50 | 2990 | Active | 50 |  |  |  |  |  |  |  |  |  |  |
| O=C1c2ccccc2-c2nc3nonc3nc21 | 170 | Active | Active | 80 | 160 | Active | > 80 | 20 | 20 | 0.025 | 200 | 0.025 | 950 | Active | Active | Active | Active |
